Data on five molecules can be found in ChEMBL document CHEMBL3228036, “A new chemical series active against African trypanosomes: benzyltriphenylphosphonium salts” (J Med Chem, 1979).

In series [1] the test system is Trypanosoma brucei rhodesiense. The experiment in a line: […] activity against Trypanosoma brucei rhodesiense Wellcome CT infected in ICR/HA mouse assessed as curated mouse at 6.5 mg/kg, sc treated within 2 hrs of parasite infection measured up to 30 days. Type of series: functional, organism-based. Also on record: dose 6.5 mg/kg.
Series [2] concerns Trypanosoma brucei rhodesiense. In words: […] activity against Trypanosoma brucei rhodesiense Wellcome CT infected in ICR/HA mouse assessed as curated mouse at 26.5 mg/kg, po treated within 2 hrs of parasite infection measured up to 30 days. Type of series: functional, organism-based. Also on record: dose 26.5 mg/kg.
Series [3] deals with Trypanosoma brucei rhodesiense. In words: […] activity against Trypanosoma brucei rhodesiense Wellcome CT infected in ICR/HA mouse assessed as curated mouse at 26.5 mg/kg, sc treated within 2 hrs of parasite infection measured up to 30 days. Type of series: functional.
Series [4] deals with Trypanosoma brucei rhodesiense. In words: […] activity against Trypanosoma brucei rhodesiense Wellcome CT infected in ICR/HA mouse assessed as curated mouse at 13.3 mg/kg, sc treated within 2 hrs of parasite infection measured up to 30 days. Type of series: functional, organism-based. Further details: dose 13.3 mg/kg.
In series [5] the test system is Trypanosoma brucei rhodesiense. In words: […] activity against Trypanosoma brucei rhodesiense Wellcome CT infected in ICR/HA mouse assessed as curated mouse at 53 mg/kg, sc treated within 2 hrs of parasite infection measured up to 30 days. Type of series: functional, organism-based. Further details: dose 53 mg/kg.
Series [6] concerns Trypanosoma brucei rhodesiense. In words: […] activity against Trypanosoma brucei rhodesiense Wellcome CT infected in ICR/HA mouse assessed as curated mouse at 53 mg/kg, po treated within 2 hrs of parasite infection measured up to 30 days. The format is functional, organism-based. Further details: dose 53 mg/kg.
For series [7], the system named is Mus musculus. The experiment in a line: Toxicity in Trypanosoma brucei rhodesiense Wellcome CT infected ICR/HA mouse assessed as mortality at 424 mg/kg, sc treated within 2 hrs of parasite infection measured up to 30 days. Conditions: in vivo. The format is organism-based. Further details: dose 424 mg/kg, route subcutaneous.
The test system of series [8] is Mus musculus. The experiment in a line: Toxicity in Trypanosoma brucei rhodesiense Wellcome CT infected ICR/HA mouse assessed as mortality at 212 mg/kg, po treated within 2 hrs of parasite infection measured up to 30 days. The format is organism-based. Further details: dose 212 mg/kg, route oral. Conditions: in vivo.
For series [9], the system named is Trypanosoma brucei rhodesiense. The experiment in a line: […] activity against Trypanosoma brucei rhodesiense Wellcome CT infected in ICR/HA mouse assessed as curated mouse at 424 mg/kg, sc treated within 2 hrs of parasite infection measured up to 30 days. The format is functional, organism-based. Also on record: dose 424 mg/kg.
Series [10] deals with Trypanosoma brucei rhodesiense. In words: […] activity against Trypanosoma brucei rhodesiense Wellcome CT infected in ICR/HA mouse assessed as curated mouse at 212 mg/kg, po treated within 2 hrs of parasite infection measured up to 30 days. Type of series: functional, organism-based. Also on record: dose 212 mg/kg.
Series [11] relates to Trypanosoma brucei rhodesiense. The experiment in a line: […] activity against Trypanosoma brucei rhodesiense Wellcome CT infected in ICR/HA mouse assessed as curated mouse at 106 mg/kg, sc treated within 2 hrs of parasite infection measured up to 30 days. Type of series: functional, organism-based. Further details: dose 106 mg/kg.
In series [12] the test system is Trypanosoma brucei rhodesiense. In words: […] activity against Trypanosoma brucei rhodesiense Wellcome CT infected in ICR/HA mouse assessed as curated mouse at 13.3 mg/kg, po treated within 2 hrs of parasite infection measured up to 30 days. The format is functional, organism-based. Also on record: dose 13.3 mg/kg.
Series [13] deals with Mus musculus. In words: Toxicity in Trypanosoma brucei rhodesiense Wellcome CT infected ICR/HA mouse assessed as mortality at 424 mg/kg, po treated within 2 hrs of parasite infection measured up to 30 days. Further details: dose 424 mg/kg, route oral. The format is organism-based. Conditions: in vivo.
Series [14] has as its system Trypanosoma brucei rhodesiense. The experiment in a line: […] activity against Trypanosoma brucei rhodesiense Wellcome CT infected in ICR/HA mouse assessed as curated mouse at 424 mg/kg, po treated within 2 hrs of parasite infection measured up to 30 days. Type of series: functional, organism-based. Also on record: dose 424 mg/kg.
In series [15] the test system is Trypanosoma brucei rhodesiense. In words: […] activity against Trypanosoma brucei rhodesiense Wellcome CT infected in ICR/HA mouse assessed as curated mouse at 212 mg/kg, sc treated within 2 hrs of parasite infection measured up to 30 days. Type of series: functional, organism-based. Also on record: dose 212 mg/kg.
Series [16] deals with Trypanosoma brucei rhodesiense. The experiment in a line: […] activity against Trypanosoma brucei rhodesiense Wellcome CT infected in ICR/HA mouse assessed as curated mouse at 6.5 mg/kg, po treated within 2 hrs of parasite infection measured up to 30 days. Type of series: functional, organism-based. Also on record: dose 6.5 mg/kg.
Series [17] relates to Trypanosoma brucei rhodesiense. In words: […] activity against Trypanosoma brucei rhodesiense Wellcome CT infected in ICR/HA mouse assessed as curated mouse at 106 mg/kg, po treated within 2 hrs of parasite infection measured up to 30 days. The format is functional, organism-based. Further details: dose 106 mg/kg.
The test system of series [18] is Mus musculus. In words: Toxicity in Trypanosoma brucei rhodesiense Wellcome CT infected ICR/HA mouse assessed as mortality at 212 mg/kg, sc treated within 2 hrs of parasite infection measured up to 30 days. The format is organism-based. Also on record: dose 212 mg/kg, route subcutaneous. Conditions: in vivo.
Series [19] deals with Mus musculus. In words: Toxicity in Trypanosoma rhodesiense Wellcome CT infected ICR/HA mouse assessed as mortality at 106 mg/kg, sc treated within 2 hrs of parasite infection measured up to 30 days. The format is organism-based. Also on record: dose 106 mg/kg, route subcutaneous. Conditions: in vivo.

The source made the active and inactive calls. The rule behind the calls is not given here.

In the case of `[Br-].c1ccc(C[P+](c2ccccc2)(c2ccccc2)c2ccccc2)cc1`, the result in series [1], in series [2], in [3], in [4], in series [5] and in [6] was inactive. Also, the result in series [9], in series [10], in series [11] and in [12] was inactive. In addition, the Activity result in the series on Mus musculus [7] and in the series on Mus musculus [8] was “Toxic” in each case.
As for `Cc1ccccc1[P+](Cc1ccccc1)(c1ccccc1)c1ccccc1.[Cl-]`, the outcome in series [1], in series [2], in series [4], in series [5], in series [6] and in series [9] was inactive. The result in series [11], in series [14] and in series [12] was inactive. For the same molecule, the Activity result in the series on Mus musculus [7] and in the series on Mus musculus [13] was “Toxic” each time.
For the molecule `N=C(N)c1ccc(/C=C/c2ccc(C(=N)N)cc2)cc1` [STILBAMIDINE], the Activity in [3] (route subcutaneous) is 98%. Further, the result in series [4], in [5], in series [6], in series [15], in series [9] and in series [10] was Active. Besides, the result in [17], in series [11] and in series [14] was Active. In addition, in series [16], the result was inactive.
For the molecule `Cc1ccc([P+](Cc2ccccc2)(c2ccccc2)c2ccccc2)cc1.[Cl-]`, the result in series [1], in series [2], in series [3], in series [4], in [6] and in series [15] was inactive. The result in series [9], in [10], in series [17], in series [14] and in [12] was inactive. Besides, the Activity entry with Mus musculus [7], in the series on Mus musculus [8], in the series on Mus musculus [13] and in the series with Mus musculus [18] was “Toxic” throughout.
Consider `FC(F)(F)c1ccc(C[P+](c2ccccc2)(c2ccccc2)c2ccccc2)cc1.[Cl-]`, for which the outcome in series [2], in series [3], in [4], in series [6], in [9] and in series [10] was inactive. The outcome in [17], in series [14] and in series [12] was inactive. For the same molecule, the Activity result in the series with Mus musculus [7], in the series on Mus musculus [8], in the series with Mus musculus [13] and in the series with Mus musculus [19] was “Toxic” in each case.
